Data taken from patent US12479827B2, “Heteroaromatic carboxamide derivatives as plasma kallikrein inhibitors” (Boehringer Ingelheim International GmbH, priority 2020, dated 2025).
pIC50: −log10 of the molar value.

Assays:
Human PKK = molecular target: T1, Human PKK (Homo sapiens, UniProt P03952); assay: Inhibition of PKK using an endpoint assay (human PKK); type: biochemical; settings: fluorogenic substrate H-Pro-Phe-Arg-AMC, 1 h room temperature, method names human or rat PKK, table does not say which
T1 construct: purchased Enzyme Research Laboratories
T1 sequence (P03952 20-390 limits assumed): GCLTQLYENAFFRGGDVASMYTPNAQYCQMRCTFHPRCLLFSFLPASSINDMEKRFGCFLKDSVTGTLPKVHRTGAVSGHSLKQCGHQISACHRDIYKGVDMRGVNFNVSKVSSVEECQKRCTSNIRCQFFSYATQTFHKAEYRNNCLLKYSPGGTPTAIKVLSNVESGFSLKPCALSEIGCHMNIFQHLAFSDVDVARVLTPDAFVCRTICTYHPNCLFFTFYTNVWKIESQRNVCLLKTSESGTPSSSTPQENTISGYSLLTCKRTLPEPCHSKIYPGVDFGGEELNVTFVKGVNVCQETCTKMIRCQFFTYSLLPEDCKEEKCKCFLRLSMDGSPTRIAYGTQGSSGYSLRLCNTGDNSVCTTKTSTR
T1 sequence (P03952 391-638 limits assumed): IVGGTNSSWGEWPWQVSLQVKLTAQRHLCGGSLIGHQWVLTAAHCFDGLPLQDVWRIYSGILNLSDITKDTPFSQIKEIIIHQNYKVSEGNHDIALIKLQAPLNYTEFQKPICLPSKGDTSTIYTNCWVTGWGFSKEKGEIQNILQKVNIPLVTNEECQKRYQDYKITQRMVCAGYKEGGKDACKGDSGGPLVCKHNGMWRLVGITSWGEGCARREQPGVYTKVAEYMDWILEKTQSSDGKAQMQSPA
Summary of the method: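 Human PKK inhibition measured in 100 mM Tris, 150 mM NaCl, pH 7.8, 0.1% BSA, 0.05% Tween20, 1% DMSO. Endpoint format: reaction stopped with PPACK II at 1 μM final, fluorescence read at 355 nm excitation/460 nm emission.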

[1] = molecular target: T2, PKK in kaolin activated human platelet poor plasma (Homo sapiens, UniProt P03952); assay: Inhibition of PKK in kaolin activated human PPP; type: biochemical; settings: 25-750 μg/mL kaolin, global fit, text b200 calls the values IC90;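 also: readout is the rate of fluorogenic substrate cleavage in rfu per min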
T2 construct: Platelet poor plasma (PPP) obtained from human wholeblood; from tissue
T2 sequence (P03952 391-638 limits assumed): as above
T2 sequence (P03952 20-390 limits assumed): as the sequence (P03952 20-390 limits assumed) above
Method: Platelet poor plasma (PPP) obtained from human wholeblood, anticoagulated with Na-Citrate, is incubated with various concentrations of the test compound together with either 25, 75, 250, or 750 μg/mL kaolin in assay buffer for 20 min at 37° C. such that for each kaolin dose used a concentration response is obtained for the test compound.

pIC50 (Human PKK)	pIC50 [1]	SMILES
9.05	6.86	CC(O)c1nc(N2CC3CC3C2)ccc1Cn1cc(C(=O)N[C@@H]2CCc3c2ncn3C)cn1 (stereo partly drawn) [Example 88, 1-[(6-{3-Azabicyclo[3.1.0]hexan-3-yl}-2-(1-hydroxyethyl)-pyridin-3-yl)methyl]-N-[(4R)-1-methyl-1H,4H,5H,6H-cyclopenta[d]imidazol-4-yl]-1H-pyrazole-4-carboxamide]
7.11	5.46	Cn1cnc2c1CC[C@H]2NC(=O)c1cnn(Cc2ncc(N3CC4CC4C3)nc2CO)c1 (stereo partly drawn) [Example 89, 1-[(5-{3-Azabicyclo[3.1.0]hexan-3-yl}-3-(hydroxymethyl)-pyrazin-2-yl)methyl]-N-[(4R)-1-methyl-1H,4H,5H,6H-cyclopenta[d]imidazol-4-yl]-1H-pyrazole-4-carboxamide]
8.68	6.36	Cn1cnc2c1CC[C@H]2NC(=O)c1cn(Cc2ccc(N3CC4CC4C3)nc2CO)nn1 (stereo partly drawn) [Example 91, 1-[(6-{3-Azabicyclo[3.1.0]hexan-3-yl}-2-(hydroxymethyl)-pyridin-3-yl)methyl]-N-[(4R)-1-methyl-1H,4H,5H,6H-cyclo-penta[d]imidazol-4-yl]-1H-1,2,3-triazole-4-carboxamide]
8.55	6.51	COCc1nc(N2CC3CC3C2)ccc1Cn1cc(C(=O)N[C@@H]2CCc3c2ncn3C)nn1 (stereo partly drawn) [Example 92, 1-[(6-{3-Azabicyclo[3.1.0]hexan-3-yl}-2-(methoxymethyl)-pyridin-3-yl)methyl]-N-[(4R)-1-methyl-1H,4H,5H,6H-cyclo-penta[d]imidazol-4-yl]-1H-1,2,3-triazole-4-carboxamide]
8.85	6.96	Cn1cnc2c1CC[C@H]2NC(=O)c1cnn(Cc2ccc(N3CC4C(C3)C4(F)F)nc2CO)c1 (stereo partly drawn) [Example 93, 1-[(6-{6,6-Difluoro-3-azabicyclo[3.1.0]hexan-3-yl}-2-(hydroxymethyl)pyridin-3-yl)methyl]-N-[(4R)-1-methyl-1H,4H,5H,6H-cyclopenta-[d]imidazol-4-yl]-1H-pyrazole-4-carboxamide]
7.97	5.75	Cc1nc(N2CC3C(C2)C3(F)F)cnc1Cn1cc(C(=O)N[C@@H]2CCc3c2ncn3C)nn1 (stereo partly drawn) [Example 94, 1-[(5-{6,6-Difluoro-3-azabicyclo[3.1.0]hexan-3-yl}-3-methylpyrazin-2-yl)methyl]-N-[(4R)-1-methyl-1H,4H,5H,6H-cyclopenta[d]imidazol-4-yl]-1H-1,2,3-triazole-4-carboxamide]
8.26	6.24	COCc1nc(N2CC3C(C2)C3(F)F)ccc1Cn1cnc(C(=O)N[C@@H]2CCc3c2ncn3C)c1 (stereo partly drawn) [Example 95, 1-[(6-{6,6-Difluoro-3-azabicyclo[3.1.0]hexan-3-yl}-2-(methoxymethyl)pyridin-3-yl)methyl]-N-[(4R)-1-methyl-1H,4H,5H,6H-cyclopenta-[d]imidazol-4-yl]-1H-imidazole-4-carboxamide]
8.82	6.87	Cn1cnc2c1CC[C@H]2NC(=O)c1cn(Cc2ccc(N3CC4C(C3)C4(F)F)nc2CO)cn1 (stereo partly drawn) [Example 96]
8.85	6.12	COc1nc(N2CC3C(C2)C3(F)F)ccc1Cn1cnc(C(=O)N[C@@H]2CCc3c2ncn3C)c1 (stereo partly drawn) [Example 97, 1-[(6-{6,6-Difluoro-3-azabicyclo[3.1.0]hexan-3-yl}-2-methoxypyridin-3-yl)methyl]-N-[(4R)-1-methyl-1H,4H,5H,6H-cyclopenta[d]imidazol-4-yl]-1H-imidazole-4-carboxamide]
8.82	6.55	Cn1cnc2c1CC[C@H]2NC(=O)c1cn(Cc2ccc(N3CC4CC4C3)nc2CO)cn1 (stereo partly drawn) [Example 98, 1-[(6-{3-Azabicyclo[3.1.0]hexan-3-yl}-2-(hydroxymethyl)pyridin-3-yl)methyl]-N-[(4R)-1-methyl-1H,4H,5H,6H-cyclopenta[d]imidazol-4-yl]-1H-imidazole-4-carboxamide]
8.43	5.66	Cn1cnc2c1CC[C@H]2NC(=O)c1cnn(Cc2cnc(N3CC4CC4C3)cc2Cl)c1 (stereo partly drawn) [Example 99, 1-[(6-{3-Azabicyclo[3.1.0]hexan-3-yl}-4-chloropyridin-3-yl)methyl]-N-[(4R)-1-methyl-1H,4H,5H,6H-cyclopenta[d]imidazol-4-yl]-1H-pyrazole-4-carboxamide]
9.22	6.53	CCc1nc(N2CC3CC3C2)ccc1Cn1cc(C(=O)N[C@@H]2CCc3c2ncn3C)nn1 (stereo partly drawn) [Example 101, 1-[(6-{3-Azabicyclo[3.1.0]hexan-3-yl}-2-ethylpyridin-3-yl)methyl]-N-[(4R)-1-methyl-1H,4H,5H,6H-cyclopenta[d]imidazol-4-yl]-1H-1,2,3-triazole-4-carboxamide]
8.68	5.84	CCOc1nc(N2CC3C(C2)C3(F)F)ccc1Cn1cnc(C(=O)N[C@@H]2CCc3c2ncn3C)c1 (stereo partly drawn) [Example 102, 1-[(6-{6,6-Difluoro-3-azabicyclo[3.1.0]hexan-3-yl}-2-ethoxypyridin-3-yl)methyl]-N-[(4R)-1-methyl-1H,4H,5H,6H-cyclopenta[d]imidazol-4-yl]-1H-imidazole-4-carboxamide]
9.15	6.27	Cc1c(Cn2cc(C(=O)N[C@@H]3CCc4c3ncn4C)cn2)cnc(N2CC3C(C2)C3(F)F)c1C#N (stereo partly drawn) [Example 103, 1-[(5-Cyano-6-{6,6-difluoro-3-azabicyclo[3.1.0]-hexan-3-yl}-4-methylpyridin-3-yl)methyl]-N-[(4R)-1-methyl-1H,4H,5H,6H-cyclopenta-[d]imidazol-4-yl]-1H-pyrazole-4-carboxamide]
8.49	6.15	Cn1cnc2c1CC[C@H]2NC(=O)c1cnn(Cc2ccc(N3CC4CC4C3)nc2F)c1 (stereo partly drawn) [Example 104, 1-[(6-{3-Azabicyclo[3.1.0]hexan-3-yl}-2-fluoropyridin-3-yl)methyl]-N-[(4R)-1-methyl-1H,4H,5H,6H-cyclopenta[d]imidazol-4-yl]-1H-pyrazole-4-carboxamide]
9.30	6.93	Cc1c(Cn2cnc(C(=O)N[C@@H]3CCc4c3ncn4C)c2)cnc(N2CC3C(C2)C3(F)F)c1C#N (stereo partly drawn) [Example 105, 1-[(5-Cyano-6-{6,6-difluoro-3-azabicyclo[3.1.0]-hexan-3-yl}-4-methylpyridin-3-yl)methyl]-N-[(4R)-1-methyl-1H,4H,5H,6H-cyclopenta-[d]imidazol-4-yl]-1H-imidazole-4-carboxamide]
8.01	5.71	Cc1cc(N2CC3CC3C2)ncc1Cn1cnc(C(=O)N[C@@H]2CCc3c2ncn3C)c1 (stereo partly drawn) [Example 106, 1-[(6-{3-Azabicyclo[3.1.0]hexan-3-yl}-4-methylpyridin-3-yl)methyl]-N-[(4R)-1-methyl-1H,4H,5H,6H-cyclopenta[d]imidazol-4-yl]-1H-imidazole-4-carboxamide]
9.10	6.38	CCc1nc(N2CC3C(C2)C3(F)F)ccc1Cn1cc(C(=O)N[C@@H]2CCc3c2ncn3C)nn1 (stereo partly drawn) [Example 109, 1-[(6-{6,6-Difluoro-3-azabicyclo[3.1.0]hexan-3-yl}-2-ethylpyridin-3-yl)methyl]-N-[(4R)-1-methyl-1H,4H,5H,6H-cyclopenta[d]imidazol-4-yl]-1H-1,2,3-triazole-4-carboxamide]
8.07	5.38	Cc1cc(N2CC3C(C2)C3(F)F)nc(C)c1Cn1cnc(C(=O)N[C@@H]2CCc3c2ncn3C)c1 (stereo partly drawn) [Example 111, 1-[(6-{6,6-Difluoro-3-azabicyclo[3.1.0]hexan-3-yl}-2,4-dimethylpyridin-3-yl)methyl]-N-[(4R)-1-methyl-1H,4H,5H,6H-cyclopenta[d]imidazol-4-yl]-1H-imidazole-4-carboxamide]
7.90	5.56	Cc1cc(N2CC3C(C2)C3(F)F)nc(C)c1Cn1cc(C(=O)N[C@@H]2CCc3c2ncn3C)cn1 (stereo partly drawn) [Example 112, 1-[(6-{6,6-Difluoro-3-azabicyclo[3.1.0]hexan-3-yl}-2,4-dimethylpyridin-3-yl)methyl]-N-[(4R)-1-methyl-1H,4H,5H,6H-cyclopenta[d]imidazol-4-yl]-1H-pyrazole-4-carboxamide]
8.72	6.37	Cn1cnc2c1CC[C@H]2NC(=O)c1cnn(Cc2ccc(N3CC4CC4C3)nc2C#N)c1 (stereo partly drawn) [Example 132, 1-[(6-{3-Azabicyclo[3.1.0]hexan-3-yl}-2-cyanopyridin-3-yl)methyl]-N-[(4R)-1-methyl-1H,4H,5H,6H-cyclopenta[d]imidazol-4-yl]-1H-pyrazole-4-carboxamide]
8.02	6.11	Cn1cnc2c1CC[C@H]2NC(=O)c1c[nH]c(Cc2ccc(N3CC4C(C3)C4(F)F)nc2)c1 (stereo partly drawn) [Example 139, 5-[(6-{6,6-Difluoro-3-azabicyclo[3.1.0]hexan-3-yl}pyridin-3-yl)methyl]-N-[(4R)-1-methyl-1H,4H,5H,6H-cyclopenta[d]imidazol-4-yl]-1H-pyrrole-3-carboxamide]
8.24	6.12	Cn1cnc2c1CC[C@H]2NC(=O)c1ccn(Cc2ccc(N3CC4C(C3)C4(F)F)nc2)c1 (stereo partly drawn) [Example 140, 1-[(6-{6,6-Difluoro-3-azabicyclo[3.1.0]hexan-3-yl}pyridin-3-yl)methyl]-N-[(4R)-1-methyl-1H,4H,5H,6H-cyclopenta[d]imidazol-4-yl]-1H-pyrrole-3-carboxamide]
8.70	6.21	Cc1nc(N2CC3C(C2)C3(F)F)ccc1Cn1ccc(C(=O)N[C@@H]2CCc3c2ncn3C)c1 (stereo partly drawn) [Example 141, 1-[(6-{6,6-Difluoro-3-azabicyclo[3.1.0]hexan-3-yl}-2-methylpyridin-3-yl)methyl]-N-[(4R)-1-methyl-1H,4H,5H,6H-cyclopenta[d]imidazol-4-yl]-1H-pyrrole-3-carboxamide]
